Results reported in patent publication US20100010058A1, “Azoline Compounds for Combating Arthropod Pests” (BASF SE, priority 2006, published 2010).

What was measured:
Type in all cases: in vivo
[1] = test system: Vetch Aphid (Megoura viciae); test: Activity against Vetch Aphid (Megoura viciae), bean leaf disk microtiterplate test; settings: foliar, 144 h, bean leaf disks sprayed, adult aphids, 6 days, compared to 0% mortality of untreated controls
Protocol: 2.1 Activity against Vetch Aphid (Megoura viciae)
The active compounds were formulated in DMSO/water (1:3). Bean leaf disks were placed into microtiterplates filled with 0.8% agar-agar and 2.5 ppm OPUS™. The leaf disks were sprayed with 2.5 μl of the test solution and 5 to 8 adult aphids were placed into the microtiterplates which were then closed and kept at 22-24° C. and 35-45% under fluorescent light for 6 days. Mortality was assessed on the basis of vital, reproduced aphids. Tests were replicated 2 times.

[2] = test system: Cotton Aphid (Aphis gossypii); test: Activity against Cotton Aphid (Aphis gossypii), cotton cotyledon dip test; settings: 120 h, cotton cotyledons dipped, mortality counts after 5 days
Excerpt: 2.2 Activity against Cotton Aphid (Aphis gossypii)
The active compounds were formulated in acetone/water (1:1) and 100 ppm Kinetic™ surfactant. Cotton plants at the cotyledon stage (one plant per pot) were infested by placing a heavily infested leaf from the main colony on top of each cotyledon. The aphids were allowed to transfer to the host plant overnight, and the leaf used to transfer the aphids was removed. The cotyledons were dipped in the test solution and allowed to dry. After 5 days, mortality counts were made.

[3] = test system: Brown Planthopper (nilaparvata lugens); test: Activity against Brown Planthopper (nilaparvata lugens), sprayed rice plants; settings: assessed 24, 48 and 72 hours after treatment, in comparison with untreated controls
Protocol: 2.4 Activity against Brown Planthopper (nilaparvata lugens)
The active compounds were formulated as a 20:80 acetone:water solution. Surfactant (Alkamuls EL 620) was added at the rate of 0.1% (vol/vol).
Potted rice plants of 3-4 weeks of age are sprayed with 10 ml of the test solution using air driven hand atomizer (Devillbis atomizer) at 1.7 bar. The treated plants are allowed to dry for about 1 hour and covered with Mylar cages. The plants are inoculated with 10 adults of the specie (5 male and 5 females) and kept at 25-27° C. and 50-60% humidity for 3 days. Mortality is assed after 24, 48 and 72 hours after treatment. Dead insects are usually found in the water surface. Each treatment is replicated once.

[4] = test system: Green Peach Aphid (Myzus persicae); test: Activity against Green Peach Aphid (Myzus persicae), pepper plant leaf dip test; settings: foliar, 120 h, pepper plant leaves dipped, after 5 days, in comparison with untreated controls
Protocol: 2.3. Activity against Green Peach Aphid (Myzus persicae)
Pepper plants in the 2nd leaf-pair stage (variety ‘California Wonder’) are infested with approximately 40 laboratory-reared aphids by placing infested leaf sections on top of the test plants. The leaf sections are removed after 24 hours. The leaves of the intact plants are dipped into gradient solutions of the test compound. Aphid mortality on the treated plants, relative to mortality on check plants, is determined after 5 days.

| Compound | mortality at 2500 ppm [1] | mortality at 300 ppm [2] | mortality at 300 ppm [3] | mortality at 300 ppm [4] |
| --- | --- | --- | --- | --- |
| Cc1cccc(CN(NC2=NCCS2)c2cccc(Cl)c2Cl)c1 [Example 7, N-(2,3-Dichloro-phenyl)-N′-(4,5-dihydro-thiazol-2-yl)-N-(3-methyl-benzyl)-hydrazine] | > 75% | > 50% | ≥ 50% | > 50% |
| CC(C)=CCN(NC1=NCCS1)c1cccc(C)c1C [Example 30, N′-(4,5-Dihydro-thiazol-2-yl)-N-(2,3-dimethyl-phenyl)-N-(3-methyl-but-2-enyl)-hydrazine] | > 75% | – | – | – |
